Measured values taken from article PMC11475281, “A Novel Liver Cancer-Selective Histone Deacetylase Inhibitor Is Effective against Hepatocellular Carcinoma and Induces Durable Responses with Immunotherapy” (ACS Pharmacology & Translational Science, 2024).

Key:
cytochrome P450 = assay type: in vitro ADME; conditions: maximum tested concentration of 100 μM
Hep-G2 cells = assay: RNA-seq differential gene expression vs DMSO control; assay type: cell-based, human
Experimental: To obtain transcriptome level evidence that may shed light on the HCC-selectivity and/or the enhanced potency of the combination of STR-V-53 with anti-PD-1 antibody, we performed RNA sequencing (RNA-seq) analysis on STR-V-53-treated Hep-G2 cells, incubated at IC50 and 2× IC50 for 24 h, relative to the untreated (DMSO) control. We first conducted gene set enrichment analysis (GSEA) using hallmark and gene ontology biological process (GOBP) gene sets to analyze the effect of STR-V-53 vs DMSO-treated control on the Hep-G2 transcriptome.[42],[43] […] Negative enrichment of the G2 M checkpoint pathway supports the finding that STR-V-53 induced S phase arrest in Hep-G2 cells (see Figure 4).
Subsequently, we focused our analysis on specific genes of interest, including gene signatures for HDAC inhibition and immune response pathways. […]
and allowed to grow for 48 hours.
RCF, with this washing step repeated twice. Next, using RNeasy Plus Mini Kit and Qiagen QIAcube […]
determined using a DeNovix spectrophotometer. Subsequently, quality control of the RNA samples was […]
(base call error rate of […]).
FASTQ files of samples were analyzed through the RNA-seq pipeline provided by the Gryder lab1. Reads were aligned to hg38 using STAR version 2.5.3a, and gene expression was calculated as Transcripts per Million mapped reads (TPM) using RSEM version 1.3.3 and filtered for coding genes. Differentially expressed genes lists were generated for each sample by calculating log2 fold change of the averaged sample TPM versus the averaged DMSO-treated control cells TPM and filtering for genes with |log2 fold change| > -1 and false discovery rate < 0.25. Hallmark2 and gene ontology biological processes (GOBP)3 gene set enrichment analysis (GSEA) was performed on the differentially expressed gene lists using the GSEA software (parameters: Run GSEAPreranked, Collapse/Remap- No_Collapse)4. GSEA results were interpreted and visualized using scripts provided by the Gryder lab1.Volcano plots were generated using DESeq2v1.41.1 and visualized with the ggplot2 R packages5,6. […]

O=C(CCCCCCn1cc(-c2ccc(O[C@H]3O[C@H](CO)[C@@H](O)[C@H](O)[C@H]3O)cc2)nn1)NO [STR-V-53]
Cytochrome P450 inhibition (cytochrome P450): no inhibition | ANP32B log2 fold change (Hep-G2 cells; 2× IC50 (20 μM), 24 h): −2.3 | CCL16 log2 fold change (Hep-G2 cells; 2× IC50 (20 μM), 24 h): −1.8 | CCL20 log2 fold change (Hep-G2 cells; 2× IC50 (20 μM), 24 h): 0.9 | CCL25 log2 fold change (Hep-G2 cells; 2× IC50 (20 μM), 24 h): 1.2 | CCL26 log2 fold change (Hep-G2 cells; 2× IC50 (20 μM), 24 h): 2.9 | CDKN1A (p21) log2 fold change (Hep-G2 cells; 2× IC50 (20 μM), 24 h): 3.3 | CX3CL1 log2 fold change (Hep-G2 cells; 2× IC50 (20 μM), 24 h): −1.7 | CXCL8 log2 fold change (Hep-G2 cells; 2× IC50 (20 μM), 24 h): −2.0 | CXCL11 log2 fold change (Hep-G2 cells; 2× IC50 (20 μM), 24 h): 1.3 | DKK-1 log2 fold change (Hep-G2 cells; 2× IC50 (20 μM), 24 h): 6.2 | MT1X log2 fold change (Hep-G2 cells; 2× IC50 (20 μM), 24 h): 3.4 | PDCD1 log2 fold change (Hep-G2 cells; 2× IC50 (20 μM), 24 h): 3.0 | TUBA1A log2 fold change (Hep-G2 cells; 2× IC50 (20 μM), 24 h): 5.4 | TYMS log2 fold change (Hep-G2 cells; 2× IC50 (20 μM), 24 h): −3.6 | Expression of MHC (HLA) complex, CD8+, and PD-1 (PDCD1) /PD-L1 (CD274) genes (Hep-G2 cells; Hep-G2, RNA-seq, 24 h): upregulates | Expression of GLUTs 1, 2, 9, and 14 (Hep-G2 cells; Hep-G2, within 24 h of uptake): downregulation | Expression of GLUTs 3, 4, 6, and 12 (Hep-G2 cells; Hep-G2, within 24 h of uptake): upregulation | ANP32B log2 fold change (Hep-G2 cells; IC50 (10 μM), 24 h): −1.8 | CCL16 log2 fold change (Hep-G2 cells; IC50 (10 μM), 24 h): −1.0 | CCL20 log2 fold change (Hep-G2 cells; IC50 (10 μM), 24 h): 1.9 | CCL25 log2 fold change (Hep-G2 cells; IC50 (10 μM), 24 h): 0.9 | CCL26 log2 fold change (Hep-G2 cells; IC50 (10 μM), 24 h): 2.1 | CDKN1A (p21) log2 fold change (Hep-G2 cells; IC50 (10 μM), 24 h): 3.1 | CX3CL1 log2 fold change (Hep-G2 cells; IC50 (10 μM), 24 h): −1.5 | CXCL8 log2 fold change (Hep-G2 cells; IC50 (10 μM), 24 h): −1.6 | CXCL11 log2 fold change (Hep-G2 cells; IC50 (10 μM), 24 h): 1.1 | DKK-1 log2 fold change (Hep-G2 cells; IC50 (10 μM), 24 h): 6.5 | MT1X log2 fold change (Hep-G2 cells; IC50 (10 μM), 24 h): 2.9 | PDCD1 log2 fold change (Hep-G2 cells; IC50 (10 μM), 24 h): 2.1 | TUBA1A log2 fold change (Hep-G2 cells; IC50 (10 μM), 24 h): 4.7 | TYMS log2 fold change (Hep-G2 cells; IC50 (10 μM), 24 h): −3.2
